Test results as given in article PMC4519324, “Substrate Specificity, Inhibitor Selectivity and Structure-Function Relationships of Aldo-Keto Reductase 1B15: A Novel Human Retinaldehyde Reductase” (PLoS ONE, 2015).
Read-outs that look alike come from different tables or passages of the source.

Key:
[1] = molecular target: T1, AKR1B15 (Homo sapiens, UniProt C9JRZ8); assay: Inhibition screening with D,L-glyceraldehyde as substrate; type: biochemical; settings: 6 mM D,L-glyceraldehyde as substrate, 0.1% DMSO
T1 construct: made in house; host or cells: E. coli BL21(DE3), with or without chaperone plasmids pBB540/pBB542
Method: (§1) Activities were determined in 100 mM sodium phosphate, pH 7.0, at 25°C, using 0.2 mM NADPH in 0.2-cm path length cuvettes, with freshly prepared substrate solutions. One unit of activity is defined as the amount of enzyme required to transform 1 μmol of substrate per min at 25°C.
(§2) All compounds tested as inhibitors were dissolved in DMSO and assayed in a final concentration of 0.1% (v/v) DMSO using 6 mM D,L-glyceraldehyde as a substrate. Kinetic constant and IC50 (compound concentration that inhibits enzymatic activity by 50%) values were calculated by fitting the initial rates to the appropriate equation using Grafit 5.0 (Eritacus Software) and values were given as the mean ± standard error of three experiments. Standard error values were less than 20% of the mean values.

[2] = molecular target: T2, AKR1B10 (Homo sapiens, UniProt O60218); assay: Inhibition of enzymatic activity with D,L-glyceraldehyde as substrate; type: biochemical
T2 construct: made in house
Method: as §1, §2

[3] = molecular target: T2, AKR1B10; settings: AKR1B10, values in Table 3; cited from earlier work
[4] = molecular target: T3, AKR1B1 (Homo sapiens, UniProt P15121); settings: read-out: Km (μM) for cofactor NADPH; cited from earlier work
T3 construct: made in house

[5] = molecular target: T1, AKR1B15; assay: Spectrophotometric activity assay (NADPH decrease at 340 nm), substrate kinetics; type: biochemical; settings: 3 mM D,L-glyceraldehyde, read-out: Km (μM) for cofactor NADPH
[6] = molecular target: T1, AKR1B15; assay: NADPH binding by quenching of Trp intrinsic fluorescence; settings: 0.5 μM protein, 20 mM sodium phosphate, pH 7.0, 25°C, read-out: K D value for NADPH
Method: (§3) NADPH binding was analyzed by quenching of Trp intrinsic fluorescence of 0.5 μM protein, using a Cary Eclipse (Varian) fluorimeter, in 20 mM sodium phosphate, pH 7.0, at 25°C in a final volume of 1 mL. The excitation wavelength was 290 nm and the emission wavelength was monitored at 340 nm. AKR1B10 was used as a control. The dissociation constant (K D) values were calculated by nonlinear fitting of experimental data, using Grafit 5.0 (Eritacus Software), to the Morrison equation: ΔF=ΔFmax·[E]+[NADPH]+KD−([E]+[NADPH]+KD)^2−4·[E]·[NADPH]/2·[E]

[7] = molecular target: T2, AKR1B10; assay: as above; settings: 0.5 μM protein, 20 mM sodium phosphate, pH 7.0, 25°C, read-out: K D value for NADPH
Method: as §3

[8] = molecular target: T2, AKR1B10; assay: Spectrophotometric activity assay (NADPH decrease at 340 nm), substrate kinetics; type: biochemical; settings: 60 mM D,L-glyceraldehyde, read-out: Km (μM) for cofactor NADPH

T2 sequence (O60218 whole entry): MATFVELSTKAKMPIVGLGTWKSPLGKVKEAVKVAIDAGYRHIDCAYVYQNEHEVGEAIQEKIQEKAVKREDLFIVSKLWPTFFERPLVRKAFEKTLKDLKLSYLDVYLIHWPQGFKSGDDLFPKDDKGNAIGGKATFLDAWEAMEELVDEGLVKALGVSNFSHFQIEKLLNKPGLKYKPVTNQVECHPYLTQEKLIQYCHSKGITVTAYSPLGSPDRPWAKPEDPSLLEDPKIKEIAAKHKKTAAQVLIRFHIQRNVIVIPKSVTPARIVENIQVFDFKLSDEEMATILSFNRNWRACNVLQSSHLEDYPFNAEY
T1 sequence (C9JRZ8 whole entry): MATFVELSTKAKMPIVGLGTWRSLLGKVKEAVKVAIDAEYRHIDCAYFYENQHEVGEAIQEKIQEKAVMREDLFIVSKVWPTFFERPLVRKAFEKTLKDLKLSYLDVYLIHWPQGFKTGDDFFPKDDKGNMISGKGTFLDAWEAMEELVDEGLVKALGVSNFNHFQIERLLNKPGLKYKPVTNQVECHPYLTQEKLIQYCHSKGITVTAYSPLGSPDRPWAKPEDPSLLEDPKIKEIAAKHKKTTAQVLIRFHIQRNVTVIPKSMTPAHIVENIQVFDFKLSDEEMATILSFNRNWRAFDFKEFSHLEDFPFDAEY

Row | SMILES | IC50 [1] [nM] | IC50 [2] [nM] | IC50 [3] [nM] | Km [4] [µM] | Km [5] [µM] | Kd [6] [nM] | Kd [7] [nM] | Km [8] [µM]
1 | COc1ccc2c(C(=S)N(C)CC(=O)O)cccc2c1C(F)(F)F [Tolrestat] | > 100000 | 6 | < 10000 | – | – | – | – | –
2 | NC(=O)C1=CN([C@@H]2O[C@H](COP(=O)(O)OP(=O)(O)OC[C@H]3O[C@@H](n4cnc5c(N)ncnc54)[C@H](OP(=O)(O)O)[C@@H]3O)[C@@H](O)[C@H]2O)C=CC1 [NADPH] | – | – | – | 2.9 | 5.7 | 113 ± 9 | 92 ± 35 | 10
